# Laboratory results reported in paper PMC11239005, “Preclinical studies of RA475, a guanidine-substituted spirocyclic candidate RPN13/ADRM1 inhibitor for treatment of ovarian cancer” (PLOS ONE, 2024).
# pIC50: −log10 of the molar value. Entries after “also recorded” stand apart in the source; their conditions may differ.
# Key:
# TC1 = test: MTT cytotoxicity assay, TC1; type: cell-based; conditions: TC-1, TC1, 72 h
# Experimental: (§1) All cell lines were obtained from the American Type Culture Collection (ATCC) and cultured in the specified medium supplemented with 10% fetal bovine serum, 100 IU/mL penicillin, and 100 μg/mL streptomycin at 37°C in a humidified 5% CO2/95% air incubator. Synthesis of new compounds is described in S1 File, and >95% purity of RA475, Up284 and its analogs were confirmed by NMR and MS. To assess drug cytotoxicity, cells were seeded at 2,500 cells/well (10,000 cells/well for MM lines) in 100 μL medium in 96-well plate as triplicates and after 24 h treated with compounds for a further 72 h. To assess cytotoxicity, the cells were incubated for 2 h at 37°C according to the manufacturer’s protocol with the Thiazolyl Blue Tetrazolium Bromide (20 μL/well of 5 mg/mL stock solution in water) (Sigma, M5655) and A570 measured using a Benchmark Plus microplate spectrophotometer (BIO-RAD). IC50 was estimated using Graphpad Prism 7 software.
# [1] = test system: 4UbFL expressed in leg muscle; test: 4UbFL reporter in leg muscle of CD-1 mice; type: in vivo, mouse; conditions: for 4UbFL bioluminescence from leg muscle vs vehicle: single IP dose 40 mg/Kg, 4-96 h
# Experimental: A patch of CD1 mouse leg was shaved of hair and 10 μg 4Ub-FL plasmid in 20 μL of PBS was injected into the quadriceps femoralis muscle followed immediately by injection of the 2 Needle Array to 5 mm depth encompassing the injection site and square wave EP (ElectroSquarePorator 833, BTX-2 Needle array 5mm gap, Harvard apparatus) delivered as eight pulses at 106 V for 20 ms with 200 ms intervals. One day post-EP, mice were anesthetized with isoflurane, injected IP with luciferin (0.3 mg in 100 μL water) and optical imaging was performed to determine basal level luciferase expression. Images were acquired for 10 min with a Xenogen IVIS 200 (Caliper, Hopkinton, MA). Equally sized areas were analyzed using Living Image 2.20 software.
# Fig 3 Impact of RA475 on proteasome function. […] Actin was used as loading control. […] C) 4T1 and HCC1806 cells stably expressing 4UbFL were treated with compounds at indicated doses for 4 h and imaged by IVIS200 after the addition of luciferin substrate (50 μL, 7mg/mL in PBS). D) Sub-confluent cultures of ES2 cells stably expressing 4UbFL were seeded at 10,000 cells/well in 96-well microtiter plates. At 18 h post transfection, cells were treated with compounds or vehicle (DMSO) at the doses indicated. After a 4 h incubation, the cells were lysed and the luciferase activity in each cell lysate was determined with a luciferase assay kit (Promega) according to the manufacturer’s instructions. Bioluminescence was measured by using a luminometer (Glomax Multidetection system, Promega) E) A patch was shaved of hair on one leg of CD-1 mice, and 10 μg 4UbFL plasmid in 20 μL of PBS was injected into the quadriceps femoralis muscle followed immediately by injection of the 2 Needle Array to 5 mm depth encompassing the injection site and square wave electroporation (ElectroSquarePorator 833, BTX-2 Needle array 5mm gap, Harvard apparatus) delivered as eight pulses at 106V for 20 ms with 200 ms intervals. One day post electroporation, mice were anesthetized with isoflurane, injected IP with luciferin (0.3 mg in 100 μL water) and optical imaging was performed to determine basal level luciferase expression. Images were acquired for 10 min with a Xenogen IVIS 200 (Caliper, Hopkinton, MA). Equally sized areas were analyzed using Living Image 2.20 software. Mice were imaged weekly during treatment. Mice were randomized into three groups (n = 5) and treated IP once with Vehicle (25% (w/v) β-Hydroxypropylcyclodextrin in water, Sigma Aldrich) alone, RA475 (40 mg/Kg) or Up284 (40 mg/Kg) and mice were imaged again at 4 h, 24 h, 48 h, 72 h and 96 h later. F) Same as in E but RA475 (40mg/Kg) and ixazomib (10mg/Kg, recommended dose) were delivered orally. Thick line indicates median measurements. […]
# 4UbFL in ES2 cells = test: 4UbFL reporter assay, ES2; type: cell-based, human; conditions: 4 h; for 4UbFL stabilization, fold over DMSO: ES2, 1.25 μM; for 4UbFL bioluminescence, luminometer: ES2 stably expressing 4UbFL
# Experimental: Sub-confluent cultures of cells were transfected with 4UbFL plasmid using TransIT 2020 reagent (Mirus Bio). Cells were seeded at 10,000 cells/well in 96-well plates 48 h post transfection, and incubated with compounds or vehicle (DMSO) at the doses and for the times indicated. Luciferase activity in cell lysate was determined with a luciferase assay kit (Promega) according to the manufacturer’s instructions. Bioluminescence was measured using a Glomax Multidetection system (Promega).
# Fig 3 Impact of RA475 on proteasome function. […] Actin was used as loading control. […] C) 4T1 and HCC1806 cells stably expressing 4UbFL were treated with compounds at indicated doses for 4 h and imaged by IVIS200 after the addition of luciferin substrate (50 μL, 7mg/mL in PBS). D) Sub-confluent cultures of ES2 cells stably expressing 4UbFL were seeded at 10,000 cells/well in 96-well microtiter plates. At 18 h post transfection, cells were treated with compounds or vehicle (DMSO) at the doses indicated. After a 4 h incubation, the cells were lysed and the luciferase activity in each cell lysate was determined with a luciferase assay kit (Promega) according to the manufacturer’s instructions. Bioluminescence was measured by using a luminometer (Glomax Multidetection system, Promega) E) A patch was shaved of hair on one leg of CD-1 mice, and 10 μg 4UbFL plasmid in 20 μL of PBS was injected into the quadriceps femoralis muscle followed immediately by injection of the 2 Needle Array to 5 mm depth encompassing the injection site and square wave electroporation (ElectroSquarePorator 833, BTX-2 Needle array 5mm gap, Harvard apparatus) delivered as eight pulses at 106V for 20 ms with 200 ms intervals. One day post electroporation, mice were anesthetized with isoflurane, injected IP with luciferin (0.3 mg in 100 μL water) and optical imaging was performed to determine basal level luciferase expression. Images were acquired for 10 min with a Xenogen IVIS 200 (Caliper, Hopkinton, MA). Equally sized areas were analyzed using Living Image 2.20 software. Mice were imaged weekly during treatment. Mice were randomized into three groups (n = 5) and treated IP once with Vehicle (25% (w/v) β-Hydroxypropylcyclodextrin in water, Sigma Aldrich) alone, RA475 (40 mg/Kg) or Up284 (40 mg/Kg) and mice were imaged again at 4 h, 24 h, 48 h, 72 h and 96 h later. F) Same as in E but RA475 (40mg/Kg) and ixazomib (10mg/Kg, recommended dose) were delivered orally. Thick line indicates median measurements. P-values are results based on Wilcoxon rank sum test for pairwise comparisons to vehicle cohort at each time point with multiplicity adjustment.
# Firefly Luciferase (FL) is a stable protein in cells, but when fused with four molecules of ubiquitin (4Ub) it is targeted for rapid degradation by proteasomes. […]
# ID8VegF = test: MTT cytotoxicity assay, ID8VegF; type: cell-based; conditions: 72 h
# Experimental: as §1
# [2] = test system: cancer lines in S1B Table; test: MTT cytotoxicity, summary over cell line panel; type: cell-based; conditions: for pIC50: 72 h, read-out: mean IC50 across all cancer lines in S1B Table
# Experimental: as §1
# Modifications of Up284 were sought to improve its drug-like properties without significant compromise of its activity in vivo, and several new compounds were synthesized (S1 File). Based on our prior studies of its pharmacophore, the central ring nitrogen was the most logical for addition of charged moieties, including RA475 and RA484. We also examined a change to either 3,4 spiro rings (RA477, RA479), or addition of 3-Fluoro substitutions (RA482) (S1 File). Our focus is developing iRPN13 to treat ovarian cancer resistant to standard of care drug regimens.
# We elected to focus on RA475 and expanded the analysis in a larger panel of cell lines including those from common cancer types and normal tissues. […] This panel included another pair of cell lines isolated from another ovarian cancer patient with drug-resistant disease (PEO4) and pre-treatment (PEO1), and both were similarly sensitive to RA475.
# TC1-Ova = test: MTT cytotoxicity assay, TC1-Ova; type: cell-based; conditions: 72 h
# Experimental: as §1
SMILES,pIC50 (TC1),4UbFL bioluminescence from leg muscle vs vehicle [1],"4UbFL stabilization, fold over DMSO (4UbFL in ES2 cells) [fold]","4UbFL bioluminescence, luminometer (4UbFL in ES2 cells)",pIC50 (ID8VegF),pIC50 [2],pIC50 (TC1-Ova),"4UbFL stabilization, fold over baseline ([1]; 40 mg/Kg IP) [fold]","stabilization of 4UbFL in muscle ([1]; single oral (PO) 40 mg/Kg dose, 40 mg/kg)","fold less potent than Up284 ([2]; overall, cell line panel)"
"N#Cc1ccc(/C=C2/C(=O)/C(=C/c3ccc(C#N)cc3)C23CCNCC3)cc1 [Up284, reference compound]",6.85,much weaker effect,> 20,dose-dependent increase in bioluminescence,6.70,6.92,7.05,,,
"Cl.Cl.N#Cc1ccc(/C=C2/C(=O)/C(=C/c3ccc(C#N)cc3)C23CCN(C(=N)N)CC3)cc1 [RA475, 1,3-bis((E)-4-cyanobenzylidene)-2-oxo-7-azaspiro[3.5]nonane-7-carboximidamide dihydrochloride]",6.66,rapidly increased the bioluminescence,> 20,dose-dependent increase in bioluminescence,5.74,6.38,6.82,> 20,much lower than seen for the single IV dose; also recorded: minimal stabilization,approximately 3 fold
